Experimental data published in patent publication US6353020B1, “Fungicidal compositions containing N-acetonylbenzamides” (Dow AgroSciences LLC, priority 1998, dated 2002).
Like-named read-outs stand apart in the source and are kept apart here.

What was measured:
[1] = test system: Phytophthora capsici (ATCC 15399); experiment: In vitro test to control Phytophthora capsici (colony growth inhibition on potato dextrose agar); assay type: cell-based
[2] = test system: Phytophthora capsici (ATCC 15399); experiment: as above; assay type: cell-based; remark: listed apart in the source
Method: (§1) Dilution series of Compounds A and B were prepared in dimethylsulfoxide (DMSO), and aliquots added to 25 ml of molten potato dextrose agar at 50° C. to give the appropriate concentrations shown in the table below. Immediately after adding the compound(s), the molten agar was poured into 9-cm diameter petri plates and allowed to harden. The final concentration of DMSO in all plates was 0.5%. Control plates contained DMSO but neither compound. Plates were inoculated in the center with 1 μl of a suspension of Phytophthora capsici (ATCC 15399, obtainable from the American Type Culture Collection, Rockville, Md., U.S.A) zoospores containing 5×10^5 zoospores per milliliter. Three replicate plates were used for each treatment. Fungal colony diameters were measured after growth for 7 days at 25° C., and two measurements were taken from each plate. Inhibition of growth was calculated by comparing growth in the treatments with compound A and/or B with growth in the controls. Degree of inhibition (observed) is expressed as a percentage in Table 1a. The predicted % inhibition in treatments containing both A and B was calculated using the Colby Formula.
as §1, with “B′” for “B”, “(Observed)” for “(observed)”, “1b.” for “1a.”, “Formula, which is known to those skilled in the art (R. S. Colby, Weeds 15, 20-22 (1967)).” for “Formula.”

[3] = Phytophthora capsici, ATCC15399, read-out: % Inhibition (Observed)

In the case of COCC(=O)N(c1c(C)cccc1C)C(C)C(=O)OC (racemic) [Compound B′, racemic mixture of Metalaxyl, reference compound], the “% Inhibition (Observed)” value ([1]; Table 1b, Compound B′ 0.6 ppm alone, 7 days at 25° C.) is reported as 35.1% and the “% Inhibition (Observed)” value ([1]; Table 1b, Compound B′ 0.9 ppm alone, 7 days at 25° C.) is reported as 48.0%.

COCC(=O)N(c1c(C)cccc1C)[C@H](C)C(=O)OC (single isomer, unassigned) [Compound B, R-Enantiomer of Metalaxyl, reference compound] was tested, and the “% Inhibition (Observed)” value ([2]; Table 1a, Compound B 0.25 ppm alone, 7 days at 25° C.) was 17.9%, the “% Inhibition (Observed)” value ([2]; Table 1a, Compound B 0.75 ppm alone, 7 days at 25° C.) was 57.6% and the “% Inhibition (Observed)” value ([1]; Table 1a, Compound B 0.5 ppm alone, 7 days at 25° C.) was 56.0%.

For CCC(C)(NC(=O)c1cc(Cl)c(C)c(Cl)c1)C(=O)CCl (stereo not shown) [Compound A, N-[3′-(1′-chloro-3′-methyl-2′-oxopentan)]-3,5-dichloro-4-methylbenzamide], the “% Inhibition (Observed)” value ([2]; Table 1b, Compound A 0.04 ppm alone) was 31.0%, the “% Inhibition (Observed)” value ([2]; Table 1b, Compound A 0.08 ppm alone) was 47.2% and the “% Inhibition (Observed)” value ([2]; Table 1b, Compound A 0.16 ppm alone) was 55.2%. The “% Inhibition (Observed)” value ([1]; Table 1a, Compound A 0.1 ppm alone, 7 days at 25° C.) was 29.0%, the “% Inhibition (Observed)” value ([1]; Table 1b, Compound A 0.12 ppm alone) was 52.3% and the “% Inhibition (Observed)” value ([1]; Table 2, Compound A 0.1 ppm alone) was 30.3%. The “% Inhibition (Observed)” value ([1]; Table 2, Compound A 0.2 ppm alone) was 39.3%, the “% Inhibition (Observed)” value ([1]; Table 2, Compound A 0.3 ppm alone) was 51.8% and the “% Inhibition (Observed)” value ([1]; Table 3, Compound A 0.1 ppm alone) was 29.0%. The “% Inhibition (Observed)” value ([1]; Table 3, Compound A 0.2 ppm alone) was 38.1%, the “% Inhibition (Observed)” value ([1]; Table 3, Compound A 0.3 ppm alone) was 47.4% and the “% Inhibition (Observed)” value ([1]; Table 4, Compound A 0.1 ppm alone) was 34.7%. For the same compound, the “% Inhibition (Observed)” value ([1]; Table 4, Compound A 0.2 ppm alone) was 44.5% and the “% Inhibition (Observed)” value ([1]; Table 4, Compound A 0.3 ppm alone) was 49.4%.

In the case of COCC(=O)N(c1c(C)cccc1C)N1CCOC1=O [Compound C, Oxadixyl, reference compound], the inhibition at 6.25 ppm [1, 3] is reported as 30.3%, the inhibition at 12.5 ppm [1, 3] is reported as 41.3% and the inhibition at 25 ppm [1, 3] is reported as 50.8%.

For Cc1cccc(C)c1N(C(=O)CCl)C1CCOC1=O (stereo not shown) [Compound D, Ofurace, reference compound], the inhibition at 12.5 ppm ([1]; Phytophthora capsici, ATCC15399, Table 3, Compound D 12.5 ppm alone, read-out: % Inhibition (Observed)) was 52.1% and the inhibition at 25 ppm ([1]; Phytophthora capsici, ATCC15399, Table 3, Compound D 25 ppm alone, read-out: % Inhibition (Observed)) was 56%.

COC(=O)C(C)N(C(=O)Cc1ccccc1)c1c(C)cccc1C (stereo not shown) [Compound E, Benalaxyl, reference compound] showed an inhibition at 20 ppm ([1]; Phytophthora capsici, ATCC15399, Table 4, Compound E 20 ppm alone, read-out: % Inhibition (Observed)) of 46.6%.
